We go through four compounds from paper PMC12004362 (RSC Advances, 2025).

pIC50: −log10 of the molar value. Where two headings read alike, the source gives them in different places.

The conditions of data set [1]: acute use for gout flares, doses up to 1.8 mg within 2 hours; cited from earlier work.
A short description of data set [2]: in vitro. Conditions: human.
Data set [3] is described as follows: in vitro. Conditions: human, primary human astrocytes.
In data set [4] the test system is BT-12 cells. The experiment in a line: Secondary screening. It is filed as cell-based, human.
Data set [5] deals with BT-16 cells. As to the kind of experiment: Secondary screening. It is filed as cell-based, human.
The subject of data set [6] is human cerebral microvascular endothelial cells (hCMEC/D3 cells).
In data set [7] the test system is primary human astrocytes. As to the kind of experiment: Cytotoxicity test.
[8] abbreviates: Homo sapiens, BT-12, 72 h, read-out: BT-12 cells IC50, 2D culture, 72 h, MTT.
Where [9] appears, read: read-out: BT-12 cells IC50, 2D culture, 72 h, MTT.
[10] abbreviates: Homo sapiens, BT-16, 72 h, read-out: BT-16 cells IC50, 2D culture, 72 h, MTT.
Where [11] appears, read: read-out: BT-16 cells IC50, 2D culture, 72 h, MTT.

In the case of `COc1cc2c(c(OC)c1OC)-c1ccc(OC)c(=O)cc1[C@@H](NC(C)=O)CC2` [Colchicine], in data set [1], the “Diarrhea, most frequently reported side effect” value is reported as 23%. Moreover, the CC50 at 72 h in data set [2] and in data set [3] was greater than 20000 nM each time.
Turning to `C[C@H]1O[C@@H](O[C@H]2[C@@H](O)C[C@H](O[C@H]3[C@@H](O)C[C@H](O[C@H]4CC[C@@]5(C)[C@H](CC[C@@H]6[C@@H]5C[C@@H](O)[C@]5(C)[C@@H](C7=CC(=O)OC7)CC[C@]65O)C4)O[C@@H]3C)O[C@@H]2C)C[C@H](O)[C@@H]1O` [Digoxin], the pIC50 in data set [4] (setting [8]) is greater than 7.00; in data set [4] (setting [9]), 7.10; in data set [5] (setting [10]) it was greater than 7.00; in data set [5] (setting [11]), 7.12.
Regarding `COc1cccc2c1C(=O)c1c(O)c3c(c(O)c1C2=O)C[C@@](O)(C(=O)CO)C[C@@H]3O[C@H]1C[C@H](N)[C@H](O)[C@H](C)O1` [Doxorubicin], the pIC50 in data set [4] (setting [8]) was 7.55; in data set [5] (setting [10]), 7.38. In addition, the “SI (CC50/IC50) hCMEC/D3: BT-12” value in data set [6] (CC50 hCMEC/D3 / IC50 BT-12) was found to be 24.964. Besides, the “SI (CC50/IC50) hCMEC/D3: BT-16” value in data set [6] (CC50 hCMEC/D3 / IC50 BT-16) amounted to 16.64. The CC50 at 72 h in data set [2] was found to be 699 nM; in data set [3], 131 nM. Moreover, the “SI (CC50/IC50) Astrocytes: BT-12” value in data set [7] (CC50 astrocytes / IC50 BT-12) was 4.679. For the same compound, the “SI (CC50/IC50) Astrocytes: BT-16” value in data set [7] (CC50 astrocytes / IC50 BT-16) stood at 3.119.
On to `CC[C@H]1CN2CCc3cc(OC)c(OC)cc3[C@@H]2C[C@@H]1C[C@H]1NCCc2cc(OC)c(OC)cc21` [Emetine], for which the pIC50 is greater than 7.00 in data set [4] (setting [8]), 7.05 in data set [4] (setting [9]), greater than 7.00 in data set [5] (setting [10]) and 7.03 in data set [5] (setting [11]). In data set [3], the CC50 at 72 h was found to be 1240 nM.

As usually defined, the pIC50 is the negative decadic logarithm of the IC50, by convention in mol/L.
